Experimental data from patent US9718817B2, “Aryl and heteroaryl ether compounds as ROR gamma modulators” (Glenmark Pharmaceuticals S.A., priority 2014, dated 2017).

Target: T1, GST-tagged ROR gamma ligand binding domain (LBD) (Homo sapiens, UniProt P51449)
T1 construct: purchased Invitrogen
T1 sequence (P51449 269-508 limits assumed): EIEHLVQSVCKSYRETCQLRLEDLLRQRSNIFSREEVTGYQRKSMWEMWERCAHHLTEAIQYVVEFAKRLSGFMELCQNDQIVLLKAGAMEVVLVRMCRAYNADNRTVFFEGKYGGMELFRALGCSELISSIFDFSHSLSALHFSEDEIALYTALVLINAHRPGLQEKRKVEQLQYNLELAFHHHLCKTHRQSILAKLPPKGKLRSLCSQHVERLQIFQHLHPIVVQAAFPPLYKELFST
Experiment: TR-FRET assay for ROR gamma (LanthaScreen co-activator peptide recruitment)
Assay type: biochemical
Conditions: for IC50: class symbols, from dose response curve; for inhibition at 1 µM: compound 1 μM; for inhibition at 1 µM / inhibition at 10 µM: TR-FRET ratio 520/495, percent of control; for inhibition at 10 µM: compound 10 μM
Text: The compounds described herein were screened for ROR gamma modulator activity using the TR-FRET assay by Lantha Screen as described in JBC 2011, 286, 26: 22707-10; and Drug Metabolism and Disposition 2009, 37, 10: 2069-78.
The assay is based on the principle that binding of the agonist to the ROR gamma causes a conformational change around helix 12 in the ligand binding domain, resulting in higher affinity for the co-activator peptide. ROR gamma being constitutively active, the Fluorescein-D22 co-activator peptide used in the assay is recruited in the absence of a ligand. Binding of the co-activator peptide, causes an increase in the TR-FRET signal while binding of an antagonist decreases the recruitment of the co-activator peptide, causing a decrease in the TR-FRET signal compared to control with no compound. The assay was performed using a two-step procedure, pre-incubation step with the compound followed by the detection step on addition of the anti-GST tagged terbium (Tb) and fluorescein tagged fluorophores as the acceptor.
Test compounds or reference compounds such as T0901317 (Calbiochem) were dissolved in dimethylsulfoxide (DMSO) to prepare 10.0 mM stock solutions and diluted to the desired concentration. The final concentration of DMSO in the reaction was 4% (v/v). The assay mixture was prepared by mixing 10 nM of the GST-tagged ROR gamma ligand binding domain (LBD) in the assay buffer containing 25 mM HEPES (pH 7.4), 100 mM NaCl, 5 mM DTT and 0.01% BSA with or without the desired concentration of the compound. The reaction was incubated at 22° C. for 1 hour. The pre-incubation step was terminated by addition of the detection mixture containing 300 nM Fluorescein-D22 co-activator peptide and 10 nM lantha screen Tb-anti GST antibody into the reaction mixture. After shaking for 5 minutes the reaction was further incubated for 1 hour at room temperature and read at 4° C. on an Infinite F500 reader as per the kit instructions (Invitrogen). The inhibition of test compound was calculated based on the TR-FRET ratio of 520/495. The activity was calculated as a percent of control reaction. IC50 values were calculated from dose response curve by nonlinear regression analysis using GraphPad Prism software.
Percentage inhibition at concentrations of 1.0 μM and 10.0 μM are given in the table along with IC50 (nM) details for selected examples.

CCS(=O)(=O)c1ccc(CC(=O)Nc2ccc(OC3(c4ccc(Cl)cc4Cl)CCCCC3)c(F)c2)cc1 [Example 135, N-(4-((1-(2,4-Dichlorophenyl)cyclohexyl)oxy)-3-fluorophenyl)-2-(4-(ethylsulfonyl)phenyl)acetamide]
IC50: 50 to 100 nM | inhibition at 1 µM: 73.2% | inhibition at 10 µM: 77%

CCS(=O)(=O)c1ccc(CC(=O)Nc2ccc3c(c2)nc(C(C)(C)Oc2ccc(Cl)c(Cl)c2)n3C)cc1 [Example 85, N-{2-[2-(3,4-Dichlorophenoxy)propan-2-yl]-1-methyl-1H-benzimidazol-5-yl}-2-[4-(ethylsulfonyl)phenyl]acetamide]
IC50: < 50 nM | inhibition at 1 µM: 87.1% | inhibition at 10 µM: 91.2%

CCS(=O)(=O)c1ccc(CC(=O)Nc2ccc(OC3(c4ccc(Cl)cc4Cl)CCCC3)cc2)cc1 [Example 123, N-{4-[1-(2,4-Dichlorophenyl)-cyclopentyloxy]-phenyl}-2-(4-ethanesulfonyl-phenyl)-acetamide]
IC50: < 50 nM | inhibition at 1 µM: 82% | inhibition at 10 µM: 87.2%

CCS(=O)(=O)c1ccc(CC(=O)Nc2ccc(OC3(c4ccc(F)c(C(F)(F)F)c4)CCOCC3)cc2)cc1 [Example 42, 2-(4-Ethanesulfonyl-phenyl)-N-{4-[4-(4-fluoro-3-trifluoromethyl-phenyl)-tetrahydro-pyran-4-yloxy]-phenyl}-acetamide]
inhibition at 1 µM: 65.9% | inhibition at 10 µM: 86%

CCS(=O)(=O)c1ccc(CC(=O)Nc2ccc(OC(C)(C)c3ccc(Cl)cc3F)c(F)c2)cc1 [Example 98, N-{4-[1-(4-Chloro-2-fluoro-phenyl)-1-methyl-ethoxy]-3-fluoro-phenyl}-2-(4-ethanesulfonyl-phenyl)-acetamide]
inhibition at 1 µM: 55% | inhibition at 10 µM: 49.6%

CCS(=O)(=O)c1ccc(CC(=O)Nc2ccc(OC3(c4ccc(Cl)cc4Cl)COC3)c(F)c2)cc1 [Example 101, N-{4-[3-(2,4-Dichloro-phenyl)-oxetan-3-yloxy]-3-fluoro-phenyl}-2-(4-ethanesulfonyl-phenyl)-acetamide]
IC50: < 50 nM | inhibition at 1 µM: 86.6% | inhibition at 10 µM: 82.3%

CCS(=O)(=O)c1ccc(CC(=O)Nc2ccc3c(c2)nc(C(C)(C)Oc2ccc(F)cc2F)n3CCF)cc1 [Example 145, N-(2-(2-(2,4-Difluorophenoxy)propan-2-yl)-1-(2-fluoroethyl)-1H-benzo[d]imidazol-5-yl)-2-(4-(ethylsulfonyl)phenyl)acetamide]
IC50: < 50 nM | inhibition at 1 µM: 79.7% | inhibition at 10 µM: 85.8%

CCS(=O)(=O)c1ccc(CC(=O)Nc2ccc(C#CC(C)(C)Oc3ccc(C#N)cc3)cc2)cc1 [Example 79, N-{4-[3-(4-Cyano-phenoxy)-3-methyl-but-1-yn-1-yl]-phenyl}-2-(4-ethanesulfonyl-phenyl)-acetamide]
IC50: < 50 nM | inhibition at 1 µM: 79.9% | inhibition at 10 µM: 86.1%

CCS(=O)(=O)c1ccc(CC(=O)Nc2ccc(OC3(c4ccc(Cl)cc4F)CC3)cc2)cc1 [Example 51, N-{4-[1-(4-Chloro-2-fluoro-phenyl)-cyclopropoxy]-phenyl}-2-(4-ethanesulfonyl-phenyl)-acetamide]
IC50: < 50 nM | inhibition at 1 µM: 85.9% | inhibition at 10 µM: 87.7%

CCn1c(C(C)(C)Oc2ccc(NC(=O)Cc3ccc(S(=O)(=O)CC)cc3)cc2)nc2cc(Cl)ccc21 [Example 16, N-(4-{[2-(5-Chloro-1-ethyl-1H-benzimidazol-2-yl)propan-2-yl]oxy}phenyl)-2-[4-(ethylsulfonyl)phenyl]acetamide]
IC50: < 50 nM | inhibition at 1 µM: 88.6% | inhibition at 10 µM: 94.3%

CCS(=O)(=O)c1ccc(CC(=O)Nc2ccc3c(c2)nc(C(C)(C)Oc2ccc(F)cc2F)n3CC(C)C)cc1 [Example 116, N-{2-[1-(2,4-Difluoro-phenoxy)-1-methyl-ethyl]-1-isobutyl-1H-benzoimidazol-5-yl}-2-(4-ethanesulfonyl-phenyl)-acetamide]
IC50: > 100 nM | inhibition at 1 µM: 79.1% | inhibition at 10 µM: 84.5%

CCS(=O)(=O)c1ccc(CC(=O)Nc2ccc(OC(C)(C)Cn3ccc4cc(Cl)ccc43)c(F)c2)cc1 [Example 104, N-{4-[2-(5-Chloro-indol-1-yl)-1,1-dimethyl-ethoxy]-3-fluoro-phenyl}-2-(4-ethanesulfonyl-phenyl)-acetamide]
IC50: 50 to 100 nM | inhibition at 1 µM: 74.5% | inhibition at 10 µM: 79.2%

CCS(=O)(=O)c1ccc(CC(=O)Nc2ccc(OC(C)(C)c3ccc(C(F)(F)F)c(F)c3)cc2)cc1 [Example 10, 2-(4-Ethanesulfonyl-phenyl)-N-{4-[1-(3-fluoro-4-trifluoromethyl-phenyl)-1-methyl-ethoxy]-phenyl}-acetamide]
inhibition at 1 µM: 70.9% | inhibition at 10 µM: 81.5%

CCS(=O)(=O)c1ccc(CC(=O)Nc2ccc3c(c2)nc(C(C)(C)Oc2ccc(Cl)cc2F)n3C)cc1 [Example 83, N-{2-[1-(4-Chloro-2-fluoro-phenoxy)-1-methyl-ethyl]-1-methyl-1H-benzoimidazol-5-yl}-2-(4-ethanesulfonyl-phenyl)-acetamide]
IC50: 50 to 100 nM | inhibition at 1 µM: 83.3% | inhibition at 10 µM: 92%

CCS(=O)(=O)c1ccc(CC(=O)Nc2ccc(C#CCOc3ccc(Cl)cc3Cl)cc2)cc1 [Example 60, N-{4-[3-(2,4-Dichlorophenoxy)prop-1-yn-1-yl]phenyl}-2-[4-(ethylsulfonyl)phenyl]acetamide]
IC50: > 100 nM | inhibition at 1 µM: 92.6% | inhibition at 10 µM: 90.4%

CCS(=O)(=O)c1ccc(CC(=O)Nc2ccc(C#CC(C)(C)Oc3ccc(Cl)cc3)cc2)cc1 [Example 64, N-{4-[3-(4-Chloro-phenoxy)-3-methyl-but-1-yn-1-yl]-phenyl}-2-(4-ethanesulfonyl-phenyl)-acetamide]
IC50: < 50 nM | inhibition at 1 µM: 82.2% | inhibition at 10 µM: 84.2%

CCn1c(C(C)(C)Oc2ccc(NC(=O)Cc3ccc(S(=O)(=O)CC)cc3)cc2)nc2ccc(F)cc21 [Example 14, N-(4-{[2-(1-ethyl-6-fluoro-1H-benzimidazol-2-yl)propan-2-yl]oxy}phenyl)-2-[4-(ethylsulfonyl)phenyl]acetamide]
IC50: < 50 nM | inhibition at 1 µM: 88.9% | inhibition at 10 µM: 93.3%

CCS(=O)(=O)c1ccc(CC(=O)Nc2ccc(C#CC(C)(C)Oc3ccc(Cl)c(F)c3)cc2)cc1 [Example 66, N-{4-[3-(4-Chloro-3-fluoro-phenoxy)-3-methyl-but-1-yn-1-yl]-phenyl}-2-(4-ethanesulfonyl-phenyl)-acetamide]
IC50: < 50 nM | inhibition at 1 µM: 84.3% | inhibition at 10 µM: 87.5%

CCS(=O)(=O)c1ccc(CC(=O)Nc2ccc(C#CC(C)(C)Oc3ccc(Cl)cc3Cl)cc2)cc1 [Example 63, N-{4-[3-(2,4-Dichloro-phenoxy)-3-methyl-but-1-yn-1-yl]-phenyl}-2-(4-ethanesulfonyl-phenyl)-acetamide]
IC50: < 50 nM | inhibition at 1 µM: 80.5% | inhibition at 10 µM: 84.5%

CCS(=O)(=O)c1ccc(CC(=O)Nc2ccc(C#CC(C)(C)Oc3ccc(Cl)c(Cl)c3)cc2)cc1 [Example 62, N-{4-[3-(3,4-Dichlorophenoxy)-3-methylbut-1-yn-1-yl]phenyl}-2-[4-(ethylsulfonyl)phenyl]acetamide]
IC50: < 50 nM | inhibition at 1 µM: 86.3% | inhibition at 10 µM: 90.2%

CCS(=O)(=O)c1ccc(CC(=O)Nc2ccc(C#CCOc3ccc(Cl)c(Cl)c3)cc2)cc1 [Example 61, N-{4-[3-(3,4-Dichlorophenoxy)prop-1-yn-1-yl]phenyl}-2-[4-(ethylsulfonyl)phenyl]acetamide]
IC50: > 100 nM | inhibition at 1 µM: 85.5% | inhibition at 10 µM: 92.9%

CCS(=O)(=O)c1ccc(CC(=O)Nc2ccc(OC3(c4nnc5ccc(Cl)cn45)CCC3)cc2)cc1 [Example 27, N-{4-[1-(6-Chloro-[1,2,4]triazolo[4,3-a]pyridin-3-yl)-cyclobutoxy]-phenyl}-2-(4-ethanesulfonyl-phenyl)-acetamide]
IC50: 50 to 100 nM | inhibition at 1 µM: 69.7% | inhibition at 10 µM: 90%

CCn1c(C(F)(F)Oc2ccc(NC(=O)Cc3ccc(S(=O)(=O)CC)cc3)cc2)nc2cc(Cl)ccc21 [Example 22, N-{4-[(5-Chloro-1-ethyl-1H-benzoimidazol-2-yl)-difluoro-methoxy]-phenyl}-2-(4-ethanesulfonyl-phenyl)-acetamide]
inhibition at 1 µM: 74.4% | inhibition at 10 µM: 82.8%
